According to patent US11965159B2, “Compositions and methods for regulating proteins and nucleic acids activities” (THE BROAD INSTITUTE, INC., priority 2019, dated 2024):

How the values were obtained:
SpCas9 = SpCas9 (Streptococcus pyogenes serotype M1, UniProt Q99ZW2); assay: Cas9 nuclease activity in EGFP disruption assay in U2OS.eGFP.PEST cells; format: cell-based; design: host or cells: U2OS.eGFP-PEST; settings: 10, 15, 20 μM, 24 h
Method: Cas9 Nuclease activity in EGFP disruption assay. Approximately 200,000 U2OS.eGFP-PEST cells were nucleofected with 400 ng of SpCas9 (Addgene Plasmid #43861) and 40 ng of sgRNA (pFYF1320 EGFP Site #1, Addgene Plasmid #47511) expressing plasmids along with a Td-tomato-encoding plasmid using the SE Cell Line 4D-Nucleofector™ X Kit (Lonza™) according to the manufacturer's protocol. Approximately 20,000 transfected cells/well in 3 replicates were plated in a 96-well plate (Corning® 3904). Cells were allowed to grow in the indicated amount of compound or DMSO for 24 h post transfection. Cells were then fixed using 4% paraformaldehyde and imaged with the HCS NuclearMask™ Blue Stain (Life Technologies™) as the nuclear counter-staining agent. Imaging was performed with an IXM 137204 ImageXpress® Automated High Content Microscope (Molecular Devices™) at 10× magnification under three excitation channels (blue, green and red) with 9 acquiring sites per well. Images were analyzed in the MetaXpress® software and data were plotted using GraphPad Prism 6. The Z′-value was calculated following the formula: […]
Cas9 Nuclease activity in EGFP disruption assay. In some embodiments, a quantitative human cell-based reporter assay that enables rapid quantitation of targeted nuclease activities is used to characterize off-target cleavage of CRISPR protein-based RNA guided endonucleases. In this assay, the activities of nucleases targeted to a single integrated EGFP reporter gene can be quantified by assessing loss of fluorescence signal in human U2OS.EGFP cells caused by inactivating frameshift insertion/deletion (indel) mutations introduced by error prone non-homologous end-joining (NHEJ) repair of nuclease-induced double-stranded breaks (DSBs).
Approximately 200,000 U2OS.eGFP-PEST cells were nucleofected with 400 ng of SpCas9 (Addgene Plasmid #43861) and 40 ng of sgRNA (pFYF1320 EGFP Site #1, Addgene Plasmid #47511) expressing plasmids along with a Td-tomato-encoding plasmid using the SE Cell Line 4D-Nucleofector™ X Kit (Lonza™) according to the manufacturer's protocol. […]

SpCas9:gRNA complex = biological target: T1, SpCas9:gRNA complex (Streptococcus pyogenes serotype M1, UniProt Q99ZW2); assay: Compound-Cas9 interaction in Bio-Layer Interferometry (BLI); format: binding; settings: excess (10×) of biotin to BRD7087 loading
T1 construct: His6 (N, cleaved yes); made in house; host or cells: E. coli BL21 Star (DE3)
Method: Compound-Cas9 interaction in BLI. The experiments were performed in a 96-well format with 180 μL reaction volume using biotinylated compound BRD7087-Biotin and streptavidin sensors. 1 μM of the biotinylated compound was loaded onto the sensors for 180s in 20 mM Tris buffer of pH 7.4, 100 mM KCl, 5 mM MgCl2, 1 mM DTT, 0.01% Tween. The compound loaded sensors were then allowed to associate with the different concentration of SpCas9:gRNA complex (1-0.15 μM) for 300s followed by dissociation in the reaction buffer. Reference sensor was loaded with compound and allowed to associate and dissociate in the reaction buffer alone. The response curves were fitted with a 2:1 stoichiometric model and a global fit steady-state analysis were performed using manufacturer inbuilt protocol. The experiment was performed in three replicates.
The competitive experiments were performed using Biotin-linker fragment. In this experiment, streptavidin sensors were pre-incubated with 10 μM of Biotin-linker before dipping into a solution of either 1 μM BRD7087-Biotin or reaction buffer alone. Sensors were then allowed to associate with different concentration of SpCas9:gRNA complex or buffer alone.
Compound-Cas9 interaction in BLL The experiments were performed in a 96-well format with 180 μL reaction volume using biotinylated compound BRD7087-Biotin and streptavidin sensors. […]

Sequence of SpCas9 (Q99ZW2 whole entry): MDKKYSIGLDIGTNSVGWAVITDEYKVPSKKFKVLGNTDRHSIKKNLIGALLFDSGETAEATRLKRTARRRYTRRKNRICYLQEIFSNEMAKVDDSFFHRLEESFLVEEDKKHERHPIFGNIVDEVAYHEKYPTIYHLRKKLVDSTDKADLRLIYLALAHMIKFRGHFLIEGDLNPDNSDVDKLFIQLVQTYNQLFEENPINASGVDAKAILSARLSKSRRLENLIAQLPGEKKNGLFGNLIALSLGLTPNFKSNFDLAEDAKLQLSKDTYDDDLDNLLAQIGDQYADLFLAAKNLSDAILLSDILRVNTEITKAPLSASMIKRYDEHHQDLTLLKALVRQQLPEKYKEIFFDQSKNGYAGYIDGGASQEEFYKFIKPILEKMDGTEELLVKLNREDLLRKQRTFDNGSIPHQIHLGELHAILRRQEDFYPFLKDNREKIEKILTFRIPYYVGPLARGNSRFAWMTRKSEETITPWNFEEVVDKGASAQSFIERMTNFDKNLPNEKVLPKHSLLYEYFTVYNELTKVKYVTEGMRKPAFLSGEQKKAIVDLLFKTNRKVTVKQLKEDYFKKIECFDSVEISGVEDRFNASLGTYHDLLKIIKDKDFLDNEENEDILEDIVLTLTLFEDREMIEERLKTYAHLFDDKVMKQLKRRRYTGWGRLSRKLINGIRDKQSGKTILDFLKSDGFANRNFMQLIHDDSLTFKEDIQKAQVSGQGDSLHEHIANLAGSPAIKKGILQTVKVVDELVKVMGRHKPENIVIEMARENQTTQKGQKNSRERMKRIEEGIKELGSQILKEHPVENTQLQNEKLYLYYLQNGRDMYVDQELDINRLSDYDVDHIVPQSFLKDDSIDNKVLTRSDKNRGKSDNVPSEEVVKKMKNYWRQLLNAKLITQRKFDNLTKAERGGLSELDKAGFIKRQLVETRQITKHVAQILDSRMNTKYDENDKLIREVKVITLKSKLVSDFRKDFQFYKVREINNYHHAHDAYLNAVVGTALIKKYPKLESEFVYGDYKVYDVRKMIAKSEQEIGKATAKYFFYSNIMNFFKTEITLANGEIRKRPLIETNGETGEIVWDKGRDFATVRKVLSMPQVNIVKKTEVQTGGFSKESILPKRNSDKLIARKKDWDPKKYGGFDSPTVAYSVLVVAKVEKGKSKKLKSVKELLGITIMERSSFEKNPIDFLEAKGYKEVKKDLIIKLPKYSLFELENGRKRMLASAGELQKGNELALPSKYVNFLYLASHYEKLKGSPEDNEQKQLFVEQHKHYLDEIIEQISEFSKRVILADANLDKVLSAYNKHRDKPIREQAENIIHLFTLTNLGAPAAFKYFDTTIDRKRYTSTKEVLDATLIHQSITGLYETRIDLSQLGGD
T1 sequence (Q99ZW2 whole entry, one chain of several): as the sequence (Q99ZW2 whole entry) above

Structure (SMILES) | potency of stereoisomers in EGFP-disruption assay relative to BRD7087 / BRD5779 (SpCas9) | BLI response signal in competitive experiment (SpCas9:gRNA complex)
OC[C@H]1Nc2ccc(-c3cccc(F)c3)cc2[C@@H]2[C@H]1CCN2Cc1ccncc1 [BRD0750, ((3aS,4S,9bS)-8-(3-Fluorophenyl)-1-(pyridin-4-ylmethyl)-2,3,3a,4,5,9b-hexahydro-1H-pyrrolo[3,2-c]quinolin-4-yl)methanol] | less potent | 
OC[C@@H]1Nc2ccc(-c3cccc(F)c3)cc2[C@H]2[C@@H]1CCN2Cc1ccncc1 [BRD2161, ((3aR,4R,9bR)-8-(3-Fluorophenyl)-1-(pyridin-4-ylmethyl)-2,3,3a,4,5,9b-hexahydro-1H-pyrrolo[3,2-c]quinolin-4-yl)methanol] | less potent | 
OC[C@@H]1Nc2ccc(-c3cccc(F)c3)cc2[C@@H]2[C@H]1CCN2Cc1ccncc1 [BRD5039, ((3aS,4R,9bS)-8-(3-Fluorophenyl)-1-(pyridin-4-ylmethyl)-2,3,3a,4,5,9b-hexahydro-1H-pyrrolo[3,2-c]quinolin-4-yl)methanol] | equipotent as BRD7087 | 
O=C(CCCC[C@@H]1SC[C@@H]2NC(=O)N[C@@H]21)NCCOCCOCCOCCC(=O)Nc1cccc(-c2ccc3c(c2)[C@H]2[C@H](CCN2Cc2ccncc2)[C@@H](CO)N3)c1 [biotin-conjugate of BRD7087, N-(2-(2-(2-(3-((3-((3aR,4S,9bR)-4-(Hydroxymethyl)-1-(pyridin-4-ylmethyl)-2,3,3a,4,5,9b-hexahydro-1H-pyrrolo[3,2-c]quinolin-8-yl)phenyl)amino)-3-oxopropoxy)ethoxy)ethoxy)ethyl)-5-((3aS,4S,6aR)-2-oxohexahydro-1H-thieno[3,4-d]imidazol-4-yl)pentanamide] |  | no substantial response signal
